Test results from patent US10202361B2, “Pyridazinones as herbicides” (E I DU PONT DE NEMOURS AND COMPANY, priority 2014, dated 2019).

Assays:
Assay type in all cases: in vivo
[1] = tested on: pigweed (Amaranthus retroflexus); assay: Test A pre-/postemergence greenhouse herbicide test; conditions: 0 to 100 scale (0 no effect, 100 complete control), approx. 10 d
Excerpt: (§1) Seeds of plant species selected from barnyardgrass (Echinochloa crus-galli), crabgrass, Large (large crabgrass, Digitaria sanguinalis), foxtail, giant (giant foxtail, Setaria faberii), morningglory (Ipomoea spp.), pigweed (Amaranthus retroflexus), velvetleaf (Abutilon theophrasti), wheat (Triticum aestivum), and corn (Zea mays) were planted into a blend of loam soil and sand and treated preemergence with a directed soil spray using test chemicals formulated in a non-phytotoxic solvent mixture which included a surfactant. At the same time these species were also treated with postemergence applications of test chemicals formulated in the same manner.
(§2) Plants ranged in height from 2 to 10 cm and were in the one- to two-leaf stage for the postemergence treatment. Treated plants and untreated controls were maintained in a greenhouse for approximately 10 d, after which time all treated plants were compared to untreated controls and visually evaluated for injury. Plant response ratings, summarized in Table A, are based on a 0 to 100 scale where 0 is no effect and 100 is complete control. A dash (-) response means no test result.

[2] = tested on: wheat (Triticum aestivum); assay: as above; conditions: 0 to 100 scale (0 no effect, 100 complete control), approx. 10 d
Excerpt: as §1, §2

[3] = tested on: crabgrass, Large (large crabgrass, Digitaria sanguinalis); assay: as above; conditions: 0 to 100 scale (0 no effect, 100 complete control), approx. 10 d
Excerpt: as §1, §2

[4] = tested on: barnyardgrass (Echinochloa crus-galli); assay: as above; conditions: 0 to 100 scale (0 no effect, 100 complete control), approx. 10 d
Excerpt: as §1, §2

[5] = tested on: morningglory (Ipomoea spp.); assay: as above; conditions: 0 to 100 scale (0 no effect, 100 complete control), approx. 10 d
Excerpt: as §1, §2

[6] = tested on: foxtail, giant (giant foxtail, Setaria faberii); assay: as above; conditions: 0 to 100 scale (0 no effect, 100 complete control), approx. 10 d
Excerpt: as §1, §2

[7] = tested on: corn (Zea mays); assay: as above; conditions: 0 to 100 scale (0 no effect, 100 complete control), approx. 10 d
Excerpt: as §1, §2

[8] = tested on: velvetleaf (Abutilon theophrasti); assay: as above; conditions: 0 to 100 scale (0 no effect, 100 complete control), approx. 10 d
Excerpt: as §1, §2

[9] = tested on: ducksalad (Heteranthera limosa); assay: Test B flooded paddy test; conditions: Flood, scale of 0 to 100, 0 is no effect, 100 is complete control, 13 to 15 d
Procedure: (§3) Plant species in the flooded paddy test selected from rice (Oryza sativa), small-flower sedge, umbrella (small-flower umbrella sedge, Cyperus difformis), ducksalad (Heteranthera limosa), and barnyardgrass (Echinochloa crus-galli) were grown to the 2-leaf stage for testing. At time of treatment, test pots were flooded to 3 cm above the soil surface, treated by application of test compounds directly to the paddy water, and then maintained at that water depth for the duration of the test. Treated plants and controls were maintained in a greenhouse for 13 to 15 d, after which time all species were compared to controls and visually evaluated. Plant response ratings, summarized in Table B, are based on a scale of 0 to 100 where 0 is no effect and 100 is complete control. A dash (-) response means no test result.

[10] = tested on: barnyardgrass (Echinochloa crus-galli); assay: Test B flooded paddy test; conditions: Flood, scale of 0 to 100, 0 is no effect, 100 is complete control, 13 to 15 d
Procedure: as §3

[11] = tested on: rice (Oryza sativa); assay: Test B flooded paddy test; conditions: Flood, scale of 0 to 100, 0 is no effect, 100 is complete control, 13 to 15 d
Procedure: as §3

[12] = tested on: sedge, umbrella (small-flower umbrella sedge, Cyperus difformis); assay: Test B flooded paddy test; conditions: Flood, scale of 0 to 100, 0 is no effect, 100 is complete control, 13 to 15 d
Procedure: as §3

Structure (SMILES) | Plant response rating, Pigweed ([1]; Postemergence, 125 g ai/ha) | Plant response rating, Pigweed ([1]; Postemergence, 500 g ai/ha) | Plant response rating, Pigweed ([1]; Preemergence, 125 g ai/ha) | Plant response rating, Pigweed ([1]; Preemergence, 500 g ai/ha) | Plant response rating, Wheat ([2]; Postemergence, 125 g ai/ha) | Plant response rating, Wheat ([2]; Postemergence, 500 g ai/ha) | Plant response rating, Wheat ([2]; Preemergence, 125 g ai/ha) | Plant response rating, Wheat ([2]; Preemergence, 500 g ai/ha) | Plant response rating, Crabgrass, Large ([3]; Postemergence, 125 g ai/ha) | Plant response rating, Crabgrass, Large ([3]; Postemergence, 500 g ai/ha) | Plant response rating, Crabgrass, Large ([3]; Preemergence, 125 g ai/ha) | Plant response rating, Crabgrass, Large ([3]; Preemergence, 500 g ai/ha) | Plant response rating, Barnyardgrass ([4]; Postemergence, 125 g ai/ha) | Plant response rating, Barnyardgrass ([4]; Postemergence, 500 g ai/ha) | Plant response rating, Barnyardgrass ([4]; Preemergence, 125 g ai/ha) | Plant response rating, Barnyardgrass ([4]; Preemergence, 500 g ai/ha) | Plant response rating, Morningglory ([5]; Postemergence, 125 g ai/ha) | Plant response rating, Morningglory ([5]; Postemergence, 500 g ai/ha) | Plant response rating, Morningglory ([5]; Preemergence, 125 g ai/ha) | Plant response rating, Morningglory ([5]; Preemergence, 500 g ai/ha) | further results
Cc1cc(Oc2ccnc(C(F)(F)F)c2)nn(-c2ccc(F)cc2)c1=O [Compound 13] | 90 | 100 | 80 | 90 | 0 | 20 | 0 | 10 | 50 | 90 | 100 | 100 | 10 | 60 | 0 | 60 | 50 | 60 | 20 | 80 | Plant response rating, Foxtail, Giant ([6]; Postemergence, 125 g ai/ha): 50; Plant response rating, Foxtail, Giant ([6]; Postemergence, 500 g ai/ha): 90; Plant response rating, Foxtail, Giant ([6]; Preemergence, 125 g ai/ha): 80; Plant response rating, Foxtail, Giant ([6]; Preemergence, 500 g ai/ha): 100; Plant response rating, Corn ([7]; Postemergence, 125 g ai/ha): 20; Plant response rating, Corn ([7]; Postemergence, 500 g ai/ha): 50; Plant response rating, Corn ([7]; Preemergence, 125 g ai/ha): 0; Plant response rating, Corn ([7]; Preemergence, 500 g ai/ha): 10; Plant response rating, Velvetleaf ([8]; Postemergence, 125 g ai/ha): 60; Plant response rating, Velvetleaf ([8]; Postemergence, 500 g ai/ha): 70; Plant response rating, Velvetleaf ([8]; Preemergence, 125 g ai/ha): 10; Plant response rating, Velvetleaf ([8]; Preemergence, 500 g ai/ha): 50; Plant response rating, Ducksalad ([9]; 250 g ai/ha): 30; Plant response rating, Barnyardgrass ([10]; 250 g ai/ha): 0; Plant response rating, Rice ([11]; 250 g ai/ha): 0; Plant response rating, Sedge, Umbrella ([12]; 250 g ai/ha): 65
Cc1cc(=O)n(-c2ccccc2)nc1Oc1ccnc(C(F)(F)F)c1 [Compound 15] | 100 | 100 | 100 | 100 | 20 | 60 | 0 | 20 | 80 | 90 | 100 | 100 | 70 | 90 | 50 | 100 | 100 | 100 | 90 | 100 | Plant response rating, Foxtail, Giant ([6]; Postemergence, 125 g ai/ha): 70; Plant response rating, Foxtail, Giant ([6]; Postemergence, 500 g ai/ha): 90; Plant response rating, Foxtail, Giant ([6]; Preemergence, 125 g ai/ha): 100; Plant response rating, Foxtail, Giant ([6]; Preemergence, 500 g ai/ha): 100; Plant response rating, Corn ([7]; Postemergence, 125 g ai/ha): 40; Plant response rating, Corn ([7]; Postemergence, 500 g ai/ha): 80; Plant response rating, Corn ([7]; Preemergence, 125 g ai/ha): 10; Plant response rating, Corn ([7]; Preemergence, 500 g ai/ha): 20; Plant response rating, Velvetleaf ([8]; Postemergence, 125 g ai/ha): 70; Plant response rating, Velvetleaf ([8]; Postemergence, 500 g ai/ha): 90; Plant response rating, Velvetleaf ([8]; Preemergence, 125 g ai/ha): 30; Plant response rating, Velvetleaf ([8]; Preemergence, 500 g ai/ha): 70; Plant response rating, Ducksalad ([9]; 250 g ai/ha): 70; Plant response rating, Barnyardgrass ([10]; 250 g ai/ha): 0; Plant response rating, Rice ([11]; 250 g ai/ha): 0; Plant response rating, Sedge, Umbrella ([12]; 250 g ai/ha): 70
CCOc1cc(=O)n(-c2ccc(C(F)(F)F)cc2)nc1Cc1ccnc(C(F)(F)F)c1 [Compound 18] | 90 | 100 | 100 | 100 | 10 | 20 | 0 | 20 | 60 | 80 | 100 | 100 | 30 | 40 | 60 | 90 | 30 | 70 | 30 | 30 | Plant response rating, Foxtail, Giant ([6]; Postemergence, 125 g ai/ha): 20; Plant response rating, Foxtail, Giant ([6]; Postemergence, 500 g ai/ha): 50; Plant response rating, Foxtail, Giant ([6]; Preemergence, 125 g ai/ha): 100; Plant response rating, Foxtail, Giant ([6]; Preemergence, 500 g ai/ha): 100; Plant response rating, Corn ([7]; Postemergence, 125 g ai/ha): 20; Plant response rating, Corn ([7]; Postemergence, 500 g ai/ha): 40; Plant response rating, Corn ([7]; Preemergence, 125 g ai/ha): 10; Plant response rating, Corn ([7]; Preemergence, 500 g ai/ha): 10; Plant response rating, Velvetleaf ([8]; Postemergence, 125 g ai/ha): 30; Plant response rating, Velvetleaf ([8]; Postemergence, 500 g ai/ha): 80; Plant response rating, Velvetleaf ([8]; Preemergence, 125 g ai/ha): 40; Plant response rating, Velvetleaf ([8]; Preemergence, 500 g ai/ha): 40; Plant response rating, Ducksalad ([9]; 125 g ai/ha): 0; Plant response rating, Barnyardgrass ([10]; 125 g ai/ha): 0; Plant response rating, Rice ([11]; 125 g ai/ha): 0; Plant response rating, Sedge, Umbrella ([12]; 125 g ai/ha): 75
CCCOc1cc(=O)n(-c2ccc(C(F)(F)F)cc2)nc1Cc1ccnc(C(F)(F)F)c1 [Compound 19] | 80 | 80 | 60 | 70 | 0 | 10 | 0 | 0 | 10 | 20 | 70 | 90 | 10 | 20 | 0 | 10 | 10 | 30 | 0 | 10 | Plant response rating, Foxtail, Giant ([6]; Postemergence, 125 g ai/ha): 10; Plant response rating, Foxtail, Giant ([6]; Postemergence, 500 g ai/ha): 20; Plant response rating, Foxtail, Giant ([6]; Preemergence, 125 g ai/ha): 40; Plant response rating, Foxtail, Giant ([6]; Preemergence, 500 g ai/ha): 70; Plant response rating, Corn ([7]; Postemergence, 125 g ai/ha): 10; Plant response rating, Corn ([7]; Postemergence, 500 g ai/ha): 10; Plant response rating, Corn ([7]; Preemergence, 125 g ai/ha): 0; Plant response rating, Corn ([7]; Preemergence, 500 g ai/ha): 0; Plant response rating, Velvetleaf ([8]; Postemergence, 125 g ai/ha): 10; Plant response rating, Velvetleaf ([8]; Postemergence, 500 g ai/ha): 50; Plant response rating, Velvetleaf ([8]; Preemergence, 125 g ai/ha): 0; Plant response rating, Velvetleaf ([8]; Preemergence, 500 g ai/ha): 10; Plant response rating, Ducksalad ([9]; 125 g ai/ha): 0; Plant response rating, Barnyardgrass ([10]; 125 g ai/ha): 0; Plant response rating, Rice ([11]; 125 g ai/ha): 0; Plant response rating, Sedge, Umbrella ([12]; 125 g ai/ha): 0
